From PubChem BioAssay (NCI)
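These data come from cells grown in 96-well plates and exposed to compound for 48 hours at five concentrations. TGI marks complete inhibition of growth.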

Assays:
Test in all cases: growth of human tumour cells (NCI), 48 h
[1] = tested on: SF-268 CNS
[2] = tested on: A549 NSCLC
[3] = tested on: PC-3 prostate
[4] = tested on: MCF7 breast
[5] = tested on: HCT-15 colon
[6] = tested on: HOP-62 NSCLC
[7] = tested on: MDA-N
[8] = tested on: UACC-62 melanoma
[9] = tested on: TK-10 renal
[10] = tested on: MDA-MB-231 breast
[11] = tested on: OVCAR-4 ovarian
[12] = tested on: U251 CNS
[13] = tested on: NCI-H460 lung
[14] = tested on: KM12 colon
[15] = tested on: K-562 leukemia
[16] = tested on: IGROV1 ovarian
[17] = tested on: SR leukemia
[18] = tested on: OVCAR-5 ovarian
[19] = tested on: ACHN renal
[20] = tested on: RPMI-8226 leukemia
[21] = tested on: DU-145 prostate
[22] = tested on: MOLT-4 leukemia
[23] = tested on: NCI-H226 lung
[24] = tested on: HS 578T breast
[25] = tested on: BT-549 breast
[26] = tested on: NCI-H522 lung
[27] = tested on: RXF 393 renal
[28] = tested on: HCC-2998 colon
[29] = tested on: M14 melanoma
[30] = tested on: SK-MEL-2 melanoma
[31] = tested on: SNB-75 CNS
[32] = tested on: HOP-92 NSCLC
[33] = tested on: HL-60(TB) leukemia
[34] = tested on: NCI/ADR-RES ovarian
[35] = tested on: NCI-H23 lung
[36] = tested on: CCRF-CEM leukemia
[37] = tested on: T-47D breast
[38] = tested on: SK-OV-3 ovarian
[39] = tested on: EKVX NSCLC
[40] = tested on: HT29 colon
[41] = tested on: SW-620 colon
[42] = tested on: UACC-257 melanoma
[43] = tested on: 786-0 renal
[44] = tested on: UO-31 renal
[45] = tested on: OVCAR-3 ovarian
[46] = tested on: MDA-MB-435
[47] = tested on: SF-295 CNS
[48] = tested on: HCT-116 colon
[49] = tested on: SK-MEL-28 melanoma
[50] = tested on: SN12C renal
[51] = tested on: OVCAR-8 ovarian
[52] = tested on: A498 renal
[53] = tested on: LOX IMVI melanoma
[54] = tested on: COLO 205 colon
[55] = tested on: SK-MEL-5 melanoma
[56] = tested on: SNB-19 CNS
[57] = tested on: CAKI-1 renal
[58] = tested on: SF-539 CNS
[59] = tested on: MALME-3M melanoma

Measured: TGI

COc1ccc(C2=CC(C(C)=C(C(N)=O)C(N)=O)C=C(c3ccc(Br)cc3)C2)c(OC)c1 (stereo unspecified)
> 100 µM: [1] | [2] | [3] | [4] | [5] | [6] | [7] | [8] | [9] | [10] | [11] | [12] | [13] | [14] | [15] | [16] | [17] | [18] | [19] | [20] | [21] | [22] | [23] | [24] | [25] | [26] | [27] | [28] | [29] | [30] | [31] | [32] | [33] | [34] | [35] | [36] | [37] | [38] | [39] | [40] | [41] | [42] | [43] | [44] | [45] | [46] | [47] | [48] | [49] | [50] | [51] | [52] | [53] | [54] | [55] | [56] | [57]

O=C1CSC(=S)N1/N=C/c1ccc(Cl)c([N+](=O)[O-])c1
62.1 µM: [49]
48.2 µM: [48]
47.7 µM: [53]
32.7 µM: [4]
40.4 µM: [59]
31.9 µM: [35]
71 µM: [44]
62.8 µM: [42]
50.7 µM: [11]
42.5 µM: [45]
68.5 µM: [47]
35.3 µM: [12]
52.5 µM: [34]
60.8 µM: [56]
37.9 µM: [25]
92.7 µM: [30]
56.3 µM: [50]
64.8 µM: [8]
52.6 µM: [7]
48 µM: [10]
61 µM: [33]
54.3 µM: [46]
36.8 µM: [26]
40.6 µM: [29]
86.3 µM: [6]
27.5 µM: [28]
76.9 µM: [39]
42.1 µM: [5]
40.2 µM: [1]
65.6 µM: [3]
67.7 µM: [32]
> 100 µM: [2] | [9] | [13] | [14] | [15] | [16] | [17] | [58] | [18] | [20] | [21] | [22] | [23] | [24] | [27] | [31] | [36] | [38] | [40] | [41] | [43] | [52] | [54] | [55] | [57]
45.6 µM: [19]
59.3 µM: [37]
92.2 µM: [51]

O=C1c2sc(-c3ccc(Cl)cc3)cc2-n2cccc21
> 100 µM: [1] | [2] | [3] | [4] | [5] | [6] | [7] | [8] | [9] | [10] | [11] | [12] | [13] | [14] | [15] | [16] | [17] | [18] | [19] | [20] | [21] | [22] | [23] | [24] | [25] | [26] | [27] | [28] | [29] | [59] | [30] | [31] | [34] | [36] | [37] | [38] | [39] | [40] | [41] | [42] | [43] | [44] | [45] | [46] | [47] | [48] | [49] | [50] | [51] | [52] | [53] | [54] | [55] | [56] | [57]
